Measurements reported in patent publication US6831075B2, “Heterocyclic substituted pyrazolones” (Cephalon, Inc., priority 1999, dated 2004).

Columns and labels:
Assay type in all cases: biochemical
baculoviral GST-MLK2KDLZ = biological target: T1, baculoviral GST-MLK2KDLZ (Homo sapiens, UniProt Q02779); assay: Mixed Lineage Kinase-2 inhibition assay (Millipore Multiscreen plate, 32P); settings: 1 uM compound, 100 μM ATP; for inhibition at 1 µM: read-out: MLK-2 Kinase % inhibition @ 1 uM
T1 construct: 3 μg/ml of baculoviral GST-MLK2KDLZ; GST (N); host or cells: baculovirus expression system
Protocol: Inhibition of Mixed Lineage Kinase-2 Activity
Assays were performed using the Millipore Multiscreen plate format as described for MLK1. Each 50-μl assay mixture contained 20 mM Hepes, pH 7, 1 mM EGTA, 10 mM MgCl2, 1 mM DTT, 25 mM β-glycerophosphate, 100 μM ATP, 0.25 μCi [γ-^32P]ATP, 0.1% BSA, 500 μg/ml myelin basic protein (UBI #13-104), 2% DMSO, various concentrations of test compound, and 3 μg/ml of baculoviral GST-MLK2KDLZ. Samples were incubated for 15 min. at 37° C. The reaction was stopped by adding ice cold 50% TCA and the proteins were allowed to precipitate for 30 min at 4° C. The plates were then washed with ice cold 25% TCA Supermix scintillation cocktail was added, and the plates were allowed to equilibrate for 1-2 hours prior to counting.

baculoviral GST-MLK1KD = biological target: T2, baculoviral GST-MLK1KD (Homo sapiens, UniProt P80192); assay: Mixed Lineage Kinase-1 inhibition assay (Millipore Multiscreen TCA in-plate, 32P); settings: for MLK-1 Kinase % inhibition @ 1 uM: 1 uM compound, 60 μM ATP; for inhibition at 1 µM: read-out: MLK-1 Kinase % inhibition @ 1 uM
T2 construct: 1 μg/ml of baculoviral GST-MLK1KD; GST (N); host or cells: baculovirus expression system
Protocol: Inhibition of Mixed Lineage Kinase-1 Activity
The kinase activity of MLK1 was assessed using the Millipore Multiscreen TCA “in-plate” format as described for protein kinase C (Pitt & Lee, J. Biomol. Screening, 1: 47-51, 1996). Briefly, each 50-μl assay mixture contained 20 mM Hepes, pH 7.0, 1 mM EGTA, 10 mM MgCl2, 1 mM DTT, 25 mM β-glycerophosphate, 60 μM ATP, 0.25 μCi [γ-^32P]ATP, 0.1% BSA, 500 μg/ml myelin basic protein (UBI #13-104), 2% DMSO, 1 μM of test compound, and 1 μg/ml of baculoviral GST-MLK1KD. Samples were incubated for 15 min at 37° C. The reaction was stopped by adding ice cold 50% TCA and the protein were allowed to precipitate for 30 min at 4° C. The plates were then washed with ice cold 25% TCA. Supermix scintillation cocktail was added, and the plates were allowed to equilibrate for 1-2 hours prior to counting using the Wallac MicroBeta 1450 PLUS scintillation counter.

[1] = biological target: T3, recombinant human baculoviral VEGFR2 cyctoplasmic domain (Homo sapiens, UniProt P35968); assay: VEGFR2 kinase inhibition assay (ELISA-based, time-resolved fluorescence); settings: 1 uM compound, 30 μM ATP; for inhibition at 1 µM: read-out: VEGFR-2 kinase % inhibition @ 1 uM
T3 construct: recombinant human baculoviral VEGFR2 cyctoplasmic domain; host or cells: baculovirus expression system
Protocol: Inhibition of Vascular Endothelial Growth Factor Receptor-2 Kinase Activity
Assay were performed as described for trkA kinase below. The 96-well microtiter plate (FluoroNUNC Maxisorp) was coated with 40 μg/ml recombinant human phospholipase C-γ1/glutathione S-transferase fusion protein. Inhibition studies were performed in 100 μl assay mixtures containing 50 mM HEPES, pH 7.4, 30 μM ATP, 10 mM MnCl2, 0.1% BSA, 2% DMSO, and 1 μM of test compound. The reaction was initiated by adding prephosphorylated recombinant human baculoviral VEGFR2 cyctoplasmic domain. The reaction was allowed to proceed for 15 minutes at 37° C. The detection antibody, eurpium-labeled anti-phosphotyrosine antibody (Wallac #CR04-100), was added at 1:5000 dilution in block buffer (3% BSA in TBST).

T1 sequence (Q02779 98-440 limits assumed): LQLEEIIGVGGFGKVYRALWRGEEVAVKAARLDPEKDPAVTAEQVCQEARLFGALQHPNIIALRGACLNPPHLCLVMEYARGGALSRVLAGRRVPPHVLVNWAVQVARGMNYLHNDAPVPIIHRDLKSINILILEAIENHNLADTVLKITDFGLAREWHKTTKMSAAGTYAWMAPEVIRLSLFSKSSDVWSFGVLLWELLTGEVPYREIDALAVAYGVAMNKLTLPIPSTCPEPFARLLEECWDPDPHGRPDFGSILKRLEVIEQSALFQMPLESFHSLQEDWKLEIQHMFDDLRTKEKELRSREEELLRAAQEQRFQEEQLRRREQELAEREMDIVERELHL
T3 sequence (P35968 786-1356 limits assumed): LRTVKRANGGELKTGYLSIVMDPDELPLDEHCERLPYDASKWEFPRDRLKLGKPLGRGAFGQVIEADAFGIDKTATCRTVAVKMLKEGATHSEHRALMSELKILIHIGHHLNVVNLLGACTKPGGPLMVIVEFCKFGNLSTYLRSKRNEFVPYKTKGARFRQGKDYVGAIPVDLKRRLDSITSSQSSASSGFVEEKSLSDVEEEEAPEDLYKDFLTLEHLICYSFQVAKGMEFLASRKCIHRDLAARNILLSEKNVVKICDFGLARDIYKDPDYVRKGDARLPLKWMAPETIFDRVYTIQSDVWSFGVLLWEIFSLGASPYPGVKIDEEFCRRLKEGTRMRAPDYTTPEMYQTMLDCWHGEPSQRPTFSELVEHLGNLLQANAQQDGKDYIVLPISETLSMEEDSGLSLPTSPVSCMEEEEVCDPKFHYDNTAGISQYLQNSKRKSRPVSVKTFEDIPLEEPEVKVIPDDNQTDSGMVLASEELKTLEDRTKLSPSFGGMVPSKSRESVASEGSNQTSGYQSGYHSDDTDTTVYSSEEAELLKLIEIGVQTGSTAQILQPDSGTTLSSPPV
T2 sequence (P80192 144-412 limits assumed): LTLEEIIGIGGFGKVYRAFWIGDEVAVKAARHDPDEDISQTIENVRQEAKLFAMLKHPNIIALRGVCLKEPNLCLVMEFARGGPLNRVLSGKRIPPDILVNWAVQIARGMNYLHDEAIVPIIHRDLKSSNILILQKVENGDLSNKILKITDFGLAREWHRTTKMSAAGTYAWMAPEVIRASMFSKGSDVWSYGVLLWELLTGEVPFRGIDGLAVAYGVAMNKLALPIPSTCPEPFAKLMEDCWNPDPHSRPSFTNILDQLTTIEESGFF

Structure (SMILES)	MLK-2 Kinase % inhibition @ 1 uM (baculoviral GST-MLK2KDLZ) [%]	MLK-1 Kinase % inhibition @ 1 uM (baculoviral GST-MLK1KD) [%]	VEGFR-2 kinase % inhibition @ 1 uM [1] [%]	inhibition at 1 µM [1] [%]	inhibition at 1 µM (baculoviral GST-MLK2KDLZ) [%]	inhibition at 1 µM (baculoviral GST-MLK1KD) [%]
Cc1cc(C)c(C=C2C(=O)NN=C2c2ccoc2)[nH]1 [Compound 1]	7	12	–	–	–	–
Cc1cc(C)c(C=C2C(=O)NN=C2C2c3ccccc3Oc3ccccc32)[nH]1 [Compound 2]	−10	−8	21	–	–	–
Cc1cc(C)c(C=C2C(=O)NN=C2c2ccncc2)[nH]1 [Compound 3]	−1	2	39	–	–	–
O=C1NN=C(c2ccoc2)C1=CC=C(c1ccccc1)c1ccccc1 [Compound 4]	−10	9	33	–	–	–
CCc1c(C=C2C(=O)NN=C2c2ccoc2)[nH]c(C(=O)OCc2ccccc2)c1C [Compound 5]	9	14	−5	–	–	–
Cc1c(I)[nH]c(C=C2C(=O)NN=C2c2ccoc2)c1I [Compound 6]	6	25	9	–	–	–
CCOC(=O)CCc1c(C(=O)OCC)[nH]c(C=C2C(=O)NN=C2c2ccoc2)c1CC(=O)OCC [Compound 7]	−12	9	−3	–	–	–
Cc1[nH]c(C=C2C(=O)NN=C2c2ccoc2)c(Br)c1Br [Compound 8]	0	15	35	–	–	–
O=C1NN=C(c2ccoc2)C1=Cc1c[nH]c2ccccc12 [Compound 9]	15	22	49	–	–	–
Cc1cc(C)c(C=C2C(=O)NN=C2c2cccnc2)[nH]1 [Compound 10]	−9	22	64	–	–	–
COc1ccc2[nH]cc(C=C3C(=O)NN=C3c3ccoc3)c2c1 [Compound 11]	7	21	50	–	–	–
O=C1NN=C(c2ccoc2)C1=Cc1ccc[nH]1 [Compound 12]	−7	27	26	–	–	–
Cc1nc(C)c(C2=NNC(=O)C2=Cc2c[nH]c3ccccc23)s1 [Compound 13]	−17	10	25	–	–	–
Cc1cc(C)c(C=C2C(=O)NN=C2c2sc(C)nc2C)[nH]1 [Compound 14]	−18	8	13	–	–	–
O=C1NN=C(c2ccoc2)C1=Cc1ncc[nH]1 [Compound 15]	−12	−3	11	–	–	–
COC(=O)c1ccc2[nH]cc(C=C3C(=O)NN=C3c3ccoc3)c2c1 [Compound 16]	7	18	34	–	–	–
O=C1NN=C(c2ccoc2)C1=Cc1c[nH]c2ccc(Cl)cc12 [Compound 17]	−8	6	48	–	–	–
O=C1NN=C(c2ccoc2)C1=Cc1c[nH]c2cccc(OCc3ccccc3)c12 [Compound 18]	−2	14	12	–	–	–
O=C1NN=C(c2ccoc2)C1=Cc1c[nH]c2ccc(F)cc12 [Compound 19]	−5	4	44	–	–	–

Structure (SMILES)	MLK-2 Kinase % inhibition @ 1 uM (baculoviral GST-MLK2KDLZ) [%]	MLK-1 Kinase % inhibition @ 1 uM (baculoviral GST-MLK1KD) [%]	VEGFR-2 kinase % inhibition @ 1 uM [1] [%]	inhibition at 1 µM [1] [%]	inhibition at 1 µM (baculoviral GST-MLK2KDLZ) [%]	inhibition at 1 µM (baculoviral GST-MLK1KD) [%]
Cn1cc(C=C2C(=O)NN=C2c2ccoc2)c2ccccc21 [Compound 20]	−3	21	67	–	–	–
O=C1NN=C(c2ccoc2)C1=Cc1c[nH]c2ccc(OCc3ccccc3)cc12 [Compound 21]	−13	4	12	–	–	–
Cc1cccc2c(C=C3C(=O)NN=C3c3ccoc3)c[nH]c12 [Compound 22]	−13	1	41	–	–	–
Cc1cc(C)c(C=C2C(=O)NN=C2c2ccn(C)c2)[nH]1 [Compound 23]	−6	30	7	–	–	–
Cn1ccc(C2=NNC(=O)C2=Cc2c[nH]c3ccccc23)c1 [Compound 24]	4	10	32	–	–	–
O=C1NN=C(c2nccs2)C1=Cc1c[nH]c2ccccc12 [Compound 25, 4-(indol-3-ylmethylene)-3-(1,3-thiazol-2-yl)-2-pyrazolin-5-one]	–	–	–	64	-4	11
Cc1cc(C)c(C=C2C(=O)NN=C2c2nccs2)[nH]1 [Compound 26, 4-[(3,5-dimethylpyrrol-2-yl)methylene]-3-(1,3-thiazol-2-yl)-2 pyrazolin-5-one]	–	–	–	–	-7	10
Cc1cc(C)c(C=C2C(=O)NN=C2c2c(C)coc2C)[nH]1 [Compound 27]	−4	6	40	–	–	–
Cc1cc(C)c(C=C2C(=O)NN=C2c2ccco2)[nH]1 [Compound 28, 4-[(3,5-dimethylpyrrol-2-yl)methylene]-3-(2-furyl)-2-pyrazolin-5-one]	–	–	–	80	10	2
O=C1NN=C(c2ccco2)C1=Cc1c[nH]c2ccccc12 [Compound 29, 3-(2-furyl)-4-(indol-3-ylmethylene)-2-pyrazolin-5-one]	–	–	–	68	2	21
Cc1cc(C)c(C=C2C(=O)NN=C2c2ccccn2)[nH]1 [Compound 30]	1	2	68	–	–	–
Cn1ccc(C2=NNC(=O)C2=Cc2c[nH]c3cccc(OCc4ccccc4)c23)c1 [Compound 31]	0	27	16	–	–	–
Cn1ccc(C2=NNC(=O)C2=Cc2c[nH]c3ccc(F)cc23)c1 [Compound 32]	−14	5	47	–	–	–
Cc1ccc2c(C=C3C(=O)NN=C3c3ccn(C)c3)c[nH]c2c1 [Compound 33]	−13	8	25	–	–	–
Cc1cccc2c(C=C3C(=O)NN=C3c3ccn(C)c3)c[nH]c12 [Compound 34]	1	17	32	–	–	–
Cn1ccc(C2=NNC(=O)C2=Cc2c[nH]c3ccc(Cl)cc23)c1 [Compound 35]	−15	7	19	–	–	–
Cn1cc(C=C2C(=O)NN=C2c2nccs2)c2ccccc21 [Compound 60]	9	37	–	–	–	–
Cc1cc(C)c(C=C2C(=O)NN=C2c2cnccn2)[nH]1 [Compound 74, 4-[(3,5-dimethylpyrrol-2-yl)methylene]-3-pyrazin-2-yl-2-pyrazolin-5-one]	–	–	–	–	17	44
